According to patent US20220226470A1, “ANTIBODIES AND METHODS FOR TREATMENT OF INFLUENZA A INFECTION” (HUMABS BIOMED SA, priority 2019, published 2022):

Columns and labels:
Assay in all cases: microbe, parasite or virus in culture
Type in all cases: cell-based
[1] = tested on: H1N1 virus; conditions: Influenza A virus, H1N1, MDCK
[2] = tested on: H3N2 virus; conditions: Influenza A virus, H3N2, MDCK
[3] = tested on: H3N2 and H1N1 strains; conditions: Influenza A virus, MDCK, read-out: relative calculated IC50

| SMILES | IC50 [1] [nM] | IC50 [2] [nM] | IC50 [3] [nM] |
| --- | --- | --- | --- |
| CCOC(=O)C1=C[C@@H](OC(CC)CC)[C@H](NC(C)=O)[C@@H](N)C1 [oseltamivir, reference compound] | 9.1 | 7 | – |
| CC(=O)N[C@H]1[C@H]([C@H](O)[C@H](O)CO)OC(C(=O)O)=C[C@@H]1N=C(N)N [zanamivir, reference compound] | – | – | 10.7 to 13.7 |
